In US20220281848A1, “PYRAZOLE-SUBSTITUTED PYRROLIDINONES AS HERBICIDES” (FMC Corporation, priority 2019, published 2022):

Columns and labels:
Type in all cases: in vivo
maize = experiment: Test D post-emergence, maize seed treated with a herbicide safener
Experimental: A formulation containing 50 g/L of the test chemical was prepared by dissolving the active ingredient in a mixture of organic solvents and emulsifier, details of which are provided in the table. This formulation was then mixed with a small, variable amount of acetone to aid dissolution, before addition of a 0.2% v/v aqueous solution of an adjuvant, as the aqueous diluent, to form an aqueous spray solution which contains a predetermined concentration of the active ingredient.
This aqueous spray solution was then sprayed onto plants including maize and wheat that had been seed treated with a herbicide safener, after one day's cultivation (for pre-emergence) or after about 12 days' cultivation (for post-emergence). The plants were grown from seeds sown in standard soil, placed in a glasshouse under controlled conditions (at 24/18° C. or 20/16° C., day/night; 16 h light; 65% humidity). After spray application the plants were then grown in a glasshouse under the same conditions and watered twice daily. After 15 d for post-emergence and 20 DAA for pre-emergence the test was evaluated (100=total damage to plant; 0=no damage to plant).

[1] = test system: ivy-leaved morning glory (Ipomoea hederacea, IPOHE); experiment: Test A post-emergence, ivy-leaved morning glory; conditions: after 13 d
In short: (§1)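 Post-emergence spray at 8 d after sowing; doses 15.625, 62.5 or 250 g/ha in acetone/water 50:50 + 0.5% Tween 20. Glasshouse 24/16 °C, 14 h light, 65% RH, watered twice daily. Visual damage rating 0–100 at 13 d.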

[2] = test system: barnyardgrass (Echinochloa crus-galli, ECHCG); experiment: Test A pre-emergence, barnyardgrass; conditions: after 13 d
In short: (§2)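 Values are percent plant damage 13 d after a pre-emergence spray (15.625, 62.5 or 250 g/ha; acetone/water with 0.5% Tween 20) applied to pots one day post-sowing, under glasshouse conditions of 24/16° C. and twice-daily watering.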

corn (Zea mays, ZEAMX) = experiment: Test A post-emergence, corn; conditions: after 13 d
In short: as §1

[3] = test system: ivy-leaved morning glory (Ipomoea hederacea, IPOHE); experiment: Test A pre-emergence, ivy-leaved morning glory; conditions: after 13 d
In short: as §2

SMILES	damage to plant (100=total damage to plant; 0=no damage to plant), ZEAMX (maize; rate 130, evaluated after 15 d)	damage to plant (100=total damage to plant; 0=no damage to plant), ZEAMX (maize; rate 250, evaluated after 15 d)	damage to plant (100=total damage to plant; 0=no damage to plant), ZEAMX (maize; rate 500, evaluated after 15 d)	damage to plant (100=total damage; 0=no damage) IPOHE ([1]; Post-Emergence at 15.625 g/ha)	damage to plant (100=total damage; 0=no damage) IPOHE ([1]; Post-Emergence at 62.5 g/ha)	damage to plant (100=total damage; 0=no damage) IPOHE ([1]; Post-Emergence at 250 g/ha)	damage to plant (100=total damage; 0=no damage) ECHCG ([2]; Pre-Emergence at 15.625 g/ha)	damage to plant (100=total damage; 0=no damage) ECHCG ([2]; Pre-Emergence at 62.5 g/ha)	damage to plant (100=total damage; 0=no damage) ECHCG ([2]; Pre-Emergence at 250 g/ha)	damage to plant (100=total damage; 0=no damage) ZEAMX (corn (Zea mays, ZEAMX); Post-Emergence at 15.625 g/ha)	damage to plant (100=total damage; 0=no damage) ZEAMX (corn (Zea mays, ZEAMX); Post-Emergence at 62.5 g/ha)	damage to plant (100=total damage; 0=no damage) ZEAMX (corn (Zea mays, ZEAMX); Post-Emergence at 250 g/ha)	damage to plant (100=total damage; 0=no damage) IPOHE ([3]; Pre-Emergence at 15.625 g/ha)	damage to plant (100=total damage; 0=no damage) IPOHE ([3]; Pre-Emergence at 62.5 g/ha)	damage to plant (100=total damage; 0=no damage) IPOHE ([3]; Pre-Emergence at 250 g/ha)
CN1CC(c2cc(C(F)(F)F)n(C)n2)C(C(=O)Nc2cccc(F)c2F)C1=O (racemic) [Compound 3]	0	0	10	0	0	0	100	100	100	0	50	80	0	0	30
CN1CC(c2cc(C(F)(F)F)n(C)n2)C(C(=O)Nc2cccc(F)n2)C1=O (racemic) [Compound 24]	0	0	20	10	20	50	90	100	100	0	10	40	0	0	40
CCn1nc([C@H]2CN(C)C(=O)[C@@H]2C(=O)Nc2cccc(F)c2F)c2ccc(F)cc21 [Compound 4]	–	–	–	0	0	20	90	90	100	20	50	90	0	10	70
COc1c(F)cccc1NC(=O)C1C(=O)N(C)CC1c1cc(C(F)(F)F)n(C)n1 (racemic) [Compound 18]	0	0	10	10	20	50	90	90	90	0	30	80	10	10	20
CN1CC(c2cc(C(F)(F)F)n(C)n2)C(C(=O)Nc2ccc(F)cc2F)C1=O (racemic) [Compound 6]	0	10	20	40	20	10	80	90	90	10	20	60	0	0	10
CCn1nc([C@H]2CN(C)C(=O)[C@@H]2C(=O)Nc2cccc(F)c2F)c2cc(F)ccc21 [Compound 8]	0	0	0	20	0	30	80	90	90	20	60	80	20	20	20
CN1CC(c2cc(C(F)(F)F)n(C)n2)C(C(=O)Nc2ccccc2F)C1=O (racemic) [Compound 9]	–	–	–	10	0	0	80	90	90	20	0	50	50	0	0
CN1CC(c2cnn(C)c2C(F)(F)F)C(C(=O)Nc2cccc(F)c2F)C1=O (racemic) [Compound 25]	–	–	–	10	40	40	90	100	100	0	20	30	0	0	0
CN1CC(c2cc(Cl)n(C)n2)C(C(=O)Nc2ccc(F)c(F)c2F)C1=O (racemic) [Compound 31]	–	–	–	20	30	40	60	80	80	0	0	0	0	0	10
